“And” between values parts separate entries of the source, which are not always exact repeats. Identical values can stand only once. Peptide text beside a SMILES is read from it.
How the values were obtained:
[1] = test system: Vib-PT; details: Aromatic C5 O-prenylation; cited from earlier work
[2] = molecular target: T1, FtmPT2 (Aspergillus fumigatus, UniProt Q4WAX1); details: Aromatic C5 N-prenylation; cited from earlier work
T1 sequence (Q4WAX1 1-427): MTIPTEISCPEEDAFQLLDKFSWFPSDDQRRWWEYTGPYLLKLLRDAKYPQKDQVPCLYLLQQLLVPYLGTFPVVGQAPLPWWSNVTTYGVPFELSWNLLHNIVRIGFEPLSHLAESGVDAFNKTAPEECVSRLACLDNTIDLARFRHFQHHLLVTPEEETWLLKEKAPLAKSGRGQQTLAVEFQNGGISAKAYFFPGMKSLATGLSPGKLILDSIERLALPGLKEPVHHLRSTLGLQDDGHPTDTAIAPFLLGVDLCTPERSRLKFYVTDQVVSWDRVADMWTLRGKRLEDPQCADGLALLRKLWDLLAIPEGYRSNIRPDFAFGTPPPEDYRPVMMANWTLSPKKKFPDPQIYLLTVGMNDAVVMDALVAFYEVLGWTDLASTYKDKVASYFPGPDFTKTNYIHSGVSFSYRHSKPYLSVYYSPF

[3] = test system: LimF; assay: LimF prenylation of His monomers and His-containing dipeptides; type: biochemical, Limnothrix sp. CACIAM 69d; details: prenyl group donor GPP; 100 μM LimF, 20 hours
Procedure: The optimization conditions were as follows: 1 mM GPP, 40 mM MgCl2, 1 mM dithiothreitol (DTT), pH 7.2, and reaction temperature 25° C. The reaction conditions described above were used below except where otherwise stated.
• A reaction was performed for 20 hours with 100 μM LimF.
Furthermore, when a prenylation reaction facilitated by 20 μM LimF was applied not only to Ac-AH-NH2, but also to various His-containing dipeptides, it became clear that a His prenylation reaction facilitated by LimF progressed for various His-containing dipeptides (FIG. 6).

[4] = test system: LimF; assay: Initial evaluation of LimF with estimated substrates bcLimE1-3 (LC-MS); type: biochemical, Limnothrix sp. CACIAM 69d; details: for geranylation by LimF (LC-MS): 20 μM LimF, 20 μM peptide, 2 mM geranyl pyrophosphate, 20 mM MgCl2, pH 7.5, 37° C., 12 hours
Procedure: In order to examine the enzymatic activity of LimF, LimF was heterologously-expressed in Escherichia coli using the method described above and incubated with chemically synthesized bcLimE1, bcLimE2 or bcLimE3 in the presence of MgCl2 and a prenyl group donor (geranyl pyrophosphate (GPP)). The reaction conditions were as described below.
First, the same experiment as described above was performed using farnesyl pyrophosphate instead of geranyl pyrophosphate as a prenyl group donor. As a result, a trace amount of farnesylated bcLimE2 was generated, although at a lower efficiency than when GPP was used.
The initial evaluation of LimF using estimated substrates (bcLimE1, bcLimE2, and bcLimE3) was performed as follows. An enzymatic reaction was performed for 12 hours at 37° C. under the conditions of LimF (20 μM), peptide substrate (20 μM), prenyl group donor (geranyl pyrophosphate or farnesyl pyrophosphate) (2 mM), HEPES (50 mM, pH 7.5), MgCl2 (20 mM), and DTT (1 mM). After reacting the substrates bcLimE1, bcLimE2, and bcLimE3 for 12 hours at 37° C., respectively, nine times the amount of 1% TFA was added and centrifuged at 4° C. (15300×g, 10 minutes), and a supernatant was recovered. 10 μL of the obtained supernatant was subjected to LC-MS analysis.

[5] = test system: LimF; assay: Steady-state kinetics of prenylation facilitated by LimF (wild type); type: biochemical, Limnothrix sp. CACIAM 69d; details: His-prenylation (C10), 1 mM GPP, 40 mM MgCl2, pH 7.2, 25° C.
Procedure: Under optimal conditions, the steady-state kinetic parameters of the prenylation reaction of bcLimE2 facilitated by LimF were measured by the methods described below.
The concentration dependence of GPP and MgCl2 in bcLimE2 prenylation reactions facilitated by LimF was measured in reaction systems containing 1 μM LimF, 1 mM or a suitably modified concentration of GPP, 50 mM HEPES pH 7.2, 0.4 mM substrate, 1 mM DTT, and 40 mM or a suitably modified concentration of MgCl2. A reaction solution containing components other than GPP was prepared and preheated to 25° C., and the reaction was then started by adding GPP. After incubating at 25° C., the reaction was stopped at each point and analyzed by LC-MS. Next, the initial rate was calculated as the slope of increase in the amount of prenylation product produced in the linear region. Three separate reactions were carried out under each condition and the mean and standard deviation of the results were used for the analysis.
For GPP concentration dependence and peptide substrate concentration dependence, the kinetic parameters were estimated by fitting the initial rate and GPP substrate concentration or peptide substrate concentration to the Michaelis-Menten model in Graphpad Prism 8.4.2 (GraphPad Prism Software Inc., San Diego, California) software.
Kinetic parameters of the His-prenylation reaction facilitated by LimF were determined based on reactions under optimal conditions using substrates of different concentrations. For the Tyr-prenylation described below, the kinetic parameters were measured under the same conditions except that LimF was set to 5 μM and the reaction temperature was set to 16° C. In order to estimate the kinetic parameters, the initial rate and substrate concentration were fitted to the Michaelis-Menten model in Graphpad Prism 8.4.2 software.
In order to further evaluate the two different prenylation modes by LimF, two teMPs (teR6-H5A/Y7H and teR6-H5A) that undergo efficient His-prenylation and Tyr-prenylation, respectively, were designed and chemically synthesized. Kinetic analysis was carried out according to the above method using these peptides.

[6] = test system: LimF; assay: FIT-LimF system: one-pot in vitro expression and prenylation of teMPs; type: biochemical, Limnothrix sp. CACIAM 69d; details: 16 hours; for Modification Efficiency % (Tyr prenylation): FIT-LimF system, 20 μM LimF
Text: First, teMP (teLimE2) mimicking the sequence of bcLimE2 was designed and expressed by genetic code reprogramming using customized cell-free translation, and the so-called flexible in vitro translation (FIT) system (Goto, Y, Katoh, T. & Suga, Flexizymes for genetic code reprogramming. Nat. Protoc., 6, 779-790 (2011)). Specifically, the AUG start codon was reprogrammed with N-chloroacetyl-D-phenylalanine (^ClAcD-F), a linear precursor having a chloroacetyl group (ClAc group) at the N-terminal was expressed, and a thioether bond was formed by a spontaneous ring-closing SN2 reaction with a downstream Cys thiol (FIG. 7a). Note that the FIT system had the composition described below.
teLimE2 expressed in vitro was incubated for 16 hours at 25° C. in the presence of 100 μM LimF and analyzed by LC-MS. […] The in vitro translation system conjugated with LimF will be referred to hereinafter as the FIT-LimF system.
38 types of teLimE2 variants in which the His-1 and His+1 positions were substituted with 19 types of proteinogenic amino acid other than Cys were designed and then expressed and modified in the FIT-LimF system. The reaction results were analyzed by LC-MS. In the present experiment, the prenylation process was performed under intentionally poor modification efficiency conditions by using a low LimF concentration (10 μM). This allowed for more accurate investigation of the influence of His−1 and His+1 amino acids.
The following series of experiments examined whether teMPs of various ring sizes were tolerated by LimF. Thirteen teMP variants with different ring sizes (4 to 18 residues) and a preferred local sequence motif (Ser-His-Ala/Cys) were designed.
Next, it was shown that LimF can modify teMPs having a variety of random sequences. Five teMPs composed of random sequences were expressed and modified using the FIT-LimF system (LimF concentration: 10 μM) (FIG. 7e). […]
Target sequence in this assay (as listed by the source): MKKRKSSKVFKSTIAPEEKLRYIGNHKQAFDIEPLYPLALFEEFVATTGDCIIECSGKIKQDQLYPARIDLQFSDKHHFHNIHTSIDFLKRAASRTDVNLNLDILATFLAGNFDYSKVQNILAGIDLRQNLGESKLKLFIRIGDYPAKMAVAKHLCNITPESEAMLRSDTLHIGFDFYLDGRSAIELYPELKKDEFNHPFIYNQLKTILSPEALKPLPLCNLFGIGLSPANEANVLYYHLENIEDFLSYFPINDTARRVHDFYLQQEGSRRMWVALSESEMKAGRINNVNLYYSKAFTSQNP

[7] = molecular target: T2, GLP1R (Homo sapiens, UniProt P43220); assay: cAMP production activation test (cAMP Hunter eXpress GLP1R CHO-K1 GPCR assay kit); type: cell-based; details: GLP1R CHO-K1 cells
T2 construct: host or cells: CHO-K1
Procedure: The concentration range of the used peptides was from 0.33 μM to 20 nM.

[8] = test system: LynF; details: Tyr C5 O-prenylation; cited from earlier work
[9] = test system: PagF; details: Tyr C5 O-prenylation; cited from earlier work
[10] = test system: AcyF; details: Trp C5 N-prenylation; cited from earlier work

T2 sequence (P43220 24-463): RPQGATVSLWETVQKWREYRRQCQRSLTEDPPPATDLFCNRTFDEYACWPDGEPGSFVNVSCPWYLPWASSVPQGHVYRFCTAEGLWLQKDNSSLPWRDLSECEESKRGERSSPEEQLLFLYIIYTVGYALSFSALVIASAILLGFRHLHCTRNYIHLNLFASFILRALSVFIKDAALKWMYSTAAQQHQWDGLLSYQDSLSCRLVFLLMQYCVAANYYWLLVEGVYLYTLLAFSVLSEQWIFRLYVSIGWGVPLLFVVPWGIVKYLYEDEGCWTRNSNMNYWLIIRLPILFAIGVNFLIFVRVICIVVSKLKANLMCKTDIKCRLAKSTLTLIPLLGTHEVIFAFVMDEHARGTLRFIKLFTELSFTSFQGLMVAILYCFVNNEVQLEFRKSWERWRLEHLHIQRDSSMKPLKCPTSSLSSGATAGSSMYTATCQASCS

## OCc1ccc(O)cc1 [4-hydroxy-benzenemethanol]
[1]
  Kcat: 0.000783 s⁻¹
  Km: 2050 µM

## COc1ccc2c3c([nH]c2c1)[C@H](C=C(C)C)N1C(=O)[C@@H]2CCCN2C(=O)[C@]1(O)[C@H]3O [12,13-dihydroxyfumitremorgin C]
[2]
  Kcat: 0.03 s⁻¹
  Km: 96 µM

## O=C(N[C@@H](Cc1cnc[nH]1)C(=O)O)OCC1c2ccccc2-c2ccccc21 [Fmoc-His, Fmoc-His-OH]
[3]
  Modification Efficiency %: 15.2 ± 0.8%

## N[C@@H](Cc1c[nH]cn1)C(=O)O [Free His, H-His-OH]
[3]
  Modification Efficiency %: 34.9 ± 0.7%

## CCC(C)C1NC(=O)C(CCC(=O)O)NC(=O)C(CCC(=O)O)NC(=O)C(Cc2c[nH]cn2)NC(=O)C2CCCN2C(=O)C(Cc2ccc(O)cc2)NC(=O)C(CCCNC(=N)N)NC(=O)C2CCCN2C1=O (centres unmarked) [bcLimE2] (cyclo(EEIPRYPH); configuration not given here)
[4]
  geranylation by LimF (LC-MS): quantitatively converted
[4]; farnesyl pyrophosphate instead of GPP as prenyl group donor, otherwise as geranylation test
  farnesylation by LimF: trace amount
[5]
  Kcat: 0.23 ± 0.01 s⁻¹
  Km: 313 µM and 310 µM
[5]; listed as cyclo[RYPHEEIP]
  Kcat: 0.23 s⁻¹

## CCC(C)C1NC(=O)C(CC(N)=O)NC(=O)C(C(C)O)NC(=O)C(C(C)CC)NC(=O)C2CCCN2C(=O)C(CC(=O)O)NC(=O)C(Cc2ccc(O)cc2)NC(=O)C(Cc2ccccc2)NC1=O (centres unmarked) [bcLimE3] (cyclo(DPITNIFY); configuration not given here)
[4]
  geranylation by LimF (LC-MS): not subjected to geranylation

## Ac-AH-NH2 [Ac—AH—NH2]
[3]
  Modification Efficiency %: >99%

## DHis
[6]; 100 μM LimF, 25° C., LC-MS
  prenylation by LimF in FIT-LimF system: favorable substrates

## FAEGTFTSDVSSYLEGGAAKEFIAWLVHGR [GLP-1_H7F/K34H]
[7]
  cAMP production activation ability: activity comparable to that of natural GLP-1

## cyclo[APMPPYP] (head-to-tail cyclized)
[8]
  Kcat: 0.00367 s⁻¹
  Km: 4200 µM

## cyclo[INPYLYP] (head-to-tail cyclized)
[9]
  Kcat: 0.123 s⁻¹
  Km: 0.22 µM

## cyclo[TSQIWGSPVP] (head-to-tail cyclized)
[10]
  Kcat: 0.158 s⁻¹
  Km: 3320 µM

## tecyclo [y I T N I A Y D P C] (ITNIAYDPC; not fully specified; cyclized with D-Tyr)
[6]
  Modification Efficiency % (Tyr prenylation): 1%

## tecyclo [y I T N I T Y D P C] (ITNITYDPC; not fully specified; cyclized with D-Tyr)
[6]
  Modification Efficiency % (Tyr prenylation): 21%
